Assay results reported in patent US20240277631A1, “SMALL MOLECULE DRUG (ELP-004) TO PREVENT BONE LESIONS CAUSED BY MULTIPLE MYELOMA” (West Virginia University Board of Governors on behalf of …, priority 2023, published 2024).

Key:
[1] = system: osteoclasts differentiated from Murine BMSMCs; assay: matrix resorption (pit formation) on Osteo-Assay surface plates; type: cell-based; conditions: irrespective of conditions, days 7, 14, 21
Description: Murine BMSMCs were differentiated to form osteoclasts on Osteo-Assay surface plates. The sizes of pits formed by the resorptive activity of osteoclasts differentiated under the three conditions were analyzed at days 7, 14, and 21. Average pit sizes of 10-30 pits are shown.

Murine BMSMCs = assay: LTB4-induced osteoclast fusion (TRAP, multinucleation, marker mRNA); type: cell-based; conditions: RANKL/LTB4
Description: FIGS. 6A-C show ELP-004 blocking LTB4-induced Osteoclast Fusion. (A-C) Murine BMSMCs were grown for up to 21 days in media supplemented with 50 ng/ml m-CSF, 1 ng/ml RANKL and 50 nM LTB4. Each experiment was repeated a minimum of three times. Cells were fixed and stained for Tartrate Resistant Acid Phosphatase (TRAP) activity at days 1, 7, 14 and 21. In schematic A, the number of TRAP positive osteoclast-like cells (out of 100 cells) were counted for each time point; TRAP intensity was also calculated. In schematic B, at each time point, the number of nuclei for each cell was counted and the average number of nuclei per cell for 100 cells is shown. In schematic C, mRNA expression of osteoclast markers such as TRAP5, VATPASE A3, VATPASE D2 and Calcitonin Receptor (CALCR) were measured at days 7 and 14 for both control and treated cells by RT-PCR. […] The expression patterns of osteoclast markers was unaffected by ELP-004, indicating selective inhibition of specific features of osteoclastogenesis.

CYP enzymes = assay: induction of CYP enzymes; type: in vitro ADME
U266 cells = assay: U266 cell viability (Axenin V method) and cell counts; type: cell-based, human
Description: The U266 cells were incubated in the presence of the noted concentrations of ELP-004, and the viability of the cells was determined at the indicated times using the Axenin V method.
Initial treatment with N-methyl dichloropropionaniline (N-MeDCPA, ELP-004) was examined. The N-MeDCPA was designed and synthesized and tested in laboratory experiments. A treatment scheme with plated cells was devised using N-MeDCPA as compared to a DMSO vehicle only, along with 100 μM and 200 μM dosages on U266 cell samples. U266 is a B lymphocyte isolated from the peripheral blood of a patient with myeloma and is commonly used in immune system disorder research and immunology research. The cells were allowed to incubate then counted under a 10× lens.
As may be seen in FIG. 1, the growth curve of cell samples as treated with the varying concentrations versus a DMSO vehicle can be observed. The number of cells per milliliter was calculated after examination and counting under the lens.
The effect of ELP-004 (i.e. N-MeDCPA) on […] (a myeloma cell line) proliferation is described above.

CYP1A2 = target: T1, CYP1A2 (Homo sapiens, UniProt P05177); assay: stability with recombinant CYP1A2; type: in vitro ADME; conditions: recombinant CYP1A2, intrinsic clearance, read-out: Recombinant CYP CLINT
T1 sequence (P05177 1-516): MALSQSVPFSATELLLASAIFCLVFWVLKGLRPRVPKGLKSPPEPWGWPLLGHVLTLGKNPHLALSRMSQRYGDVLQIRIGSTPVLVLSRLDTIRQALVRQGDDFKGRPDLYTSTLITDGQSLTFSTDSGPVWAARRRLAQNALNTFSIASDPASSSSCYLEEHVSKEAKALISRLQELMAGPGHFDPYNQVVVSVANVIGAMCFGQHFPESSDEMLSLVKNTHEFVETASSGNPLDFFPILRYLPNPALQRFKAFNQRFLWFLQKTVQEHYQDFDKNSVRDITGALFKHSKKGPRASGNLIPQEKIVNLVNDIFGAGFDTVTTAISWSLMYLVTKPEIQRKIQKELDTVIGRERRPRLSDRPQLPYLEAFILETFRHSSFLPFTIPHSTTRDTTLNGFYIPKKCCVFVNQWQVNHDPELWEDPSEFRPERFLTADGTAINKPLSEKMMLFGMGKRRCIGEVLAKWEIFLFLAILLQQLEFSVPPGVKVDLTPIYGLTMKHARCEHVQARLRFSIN
Description: (§1) Depicted in table 2 is cytochrome P450 phenotyping and inhibition by ELP-004. The stability of ELP-004 was tested in the presence of recombinant enzymes CYP1A2, CYP2B6, CYP2C8, CYP2C9, CYP2C19, CYP2D6, and CYP3A4. ELP-004 (1 μM) was incubated with recombinant enzymes and NADPH. The amount of ELP-004 remaining at each timepoint was analyzed by LC-MS/MS. Incubations in control recombinant enzymes were also performed to assess non-enzymatic mediated stability. The intrinsic clearance of ELP-004 was determined. […] A decrease in the formation of the metabolite compared to vehicle control is used to calculate an IC50 value. Metabolite peak area ratio response as a percentage of vehicle control is plotted against the test compound concentration.

dopamine transporter = dopamine transporter (Homo sapiens, UniProt Q01959); assay: dopamine transport
dopamine transporter, sequence (Q01959 whole entry): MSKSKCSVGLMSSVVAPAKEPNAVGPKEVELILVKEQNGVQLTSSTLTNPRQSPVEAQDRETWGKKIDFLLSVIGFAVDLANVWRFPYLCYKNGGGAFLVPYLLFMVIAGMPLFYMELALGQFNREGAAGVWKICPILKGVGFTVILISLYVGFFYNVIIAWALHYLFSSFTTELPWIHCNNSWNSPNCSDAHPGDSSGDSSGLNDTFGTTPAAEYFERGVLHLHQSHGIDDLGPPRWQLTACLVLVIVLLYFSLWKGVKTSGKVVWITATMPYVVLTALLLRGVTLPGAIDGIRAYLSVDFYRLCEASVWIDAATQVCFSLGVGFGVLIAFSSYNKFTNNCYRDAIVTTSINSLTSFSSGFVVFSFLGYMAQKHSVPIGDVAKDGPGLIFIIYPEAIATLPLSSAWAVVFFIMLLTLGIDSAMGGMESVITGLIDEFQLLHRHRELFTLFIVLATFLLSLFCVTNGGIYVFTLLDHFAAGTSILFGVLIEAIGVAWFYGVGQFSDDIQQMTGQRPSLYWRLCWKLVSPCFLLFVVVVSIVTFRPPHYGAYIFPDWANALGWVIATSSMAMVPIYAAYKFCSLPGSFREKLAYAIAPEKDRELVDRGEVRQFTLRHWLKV
Excerpt: ELP-004 has been evaluated for its ability to cross the blood brain barrier. […] Other medications, such as but not limited to bupropion, are known to cause problems due to dopamine transporter binding.

rats = assay: 1x escalating oral toxicity in rats (IITRI); type: in vivo, rat
CYP3A4 = CYP3A4 (Homo sapiens, UniProt P08684); assay: stability with recombinant CYP3A4; type: in vitro ADME; conditions: recombinant CYP3A4, intrinsic clearance, read-out: Recombinant CYP CLINT
CYP3A4, sequence (P08684 whole entry): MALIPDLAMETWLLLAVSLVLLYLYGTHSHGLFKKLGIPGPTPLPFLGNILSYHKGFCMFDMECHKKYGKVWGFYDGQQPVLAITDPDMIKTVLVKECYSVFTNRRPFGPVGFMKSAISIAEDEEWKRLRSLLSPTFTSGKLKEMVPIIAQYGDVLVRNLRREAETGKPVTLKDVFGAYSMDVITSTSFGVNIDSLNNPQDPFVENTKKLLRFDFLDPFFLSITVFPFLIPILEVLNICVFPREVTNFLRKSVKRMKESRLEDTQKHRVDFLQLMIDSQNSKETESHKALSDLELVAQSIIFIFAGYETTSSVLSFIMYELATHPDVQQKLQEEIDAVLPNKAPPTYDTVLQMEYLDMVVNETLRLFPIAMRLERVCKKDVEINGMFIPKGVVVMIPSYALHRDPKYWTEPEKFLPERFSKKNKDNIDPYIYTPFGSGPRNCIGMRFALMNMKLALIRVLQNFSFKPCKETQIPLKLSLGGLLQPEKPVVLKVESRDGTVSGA
Description: as §1

osteoclasts = assay: development of osteoclasts (osteoclastogenesis); type: cell-based
[2] = system: CYP isoforms CYP1A2, CYP2B6, CYP2C8, CYP2C9, CYP2C19, CYP2D6, and CYP3A4; assay: reversible CYP inhibition in human liver microsomes, summary over all isoforms; type: in vitro ADME; conditions: any CYP, concentration range 0.02-25 μM
Description: as §1

In the case of `CCC(=O)N(C)c1ccc(Cl)c(Cl)c1` [ELP-004, N-(3,4-dichlorophenyl)-N-methylpropanamide], the “matrix resorption activity of osteoclasts” value [1] is reported as “No resorption was observed”, the TRAP activity (Murine BMSMCs) is reported as “completed abrogated” and the “expression patterns of osteoclast markers” value (Murine BMSMCs) is reported as “unaffected”. For the same molecule, the multinucleation (Murine BMSMCs) was “severely attenuated”, the “effect on induction of CYP enzymes” value (CYP enzymes) was “no deleterious effect” and the IC50 (U266 cells; Homo sapiens, U-266, U266 cells, viability by Axenin V method, calculated using two methods) was 154 µM. For the same molecule, the myeloma cell proliferation (U266 cells; U66 (U266) myeloma cell line) was “inhibits myeloma cell proliferation”, the microsomal CLint at 1 μM (CYP1A2) was 2.85 µL/min/mg and the “problems with dopamine transport” value (dopamine transporter) was “does not cause problems with dopamine transport”. The “oral LD50” value (rats) was over 2.5 g/kg body weight, the microsomal CLint at 1 μM (CYP3A4) was 0.193 µL/min/mg and the development of osteoclasts (osteoclasts; general statement) was “inhibits the development of osteoclasts in a dose dependent manner”. The osteoclast maturation (osteoclasts; summary statement) was “suppressed” and the “reversible inhibition of CYP isoforms” value [2] was “did not inhibit”.
